The target in one test is hROMK (hKir1.1) (Homo sapiens (Human), UniProt P48048). Kind of test: Thallium Flux Assay (ROMK channel functional thallium flux, FLIPR-Tetra). The format is cell-based. How it is done:
HEK293 cells stably expressing hROMK (hKir1.1) were grown at 37° C. in a 10% CO2 humidified incubator in complete growth media: Dulbecco's Modified Eagle Medium supplemented with non-essential amino acids, Penicillin/Streptomycin/Glutamine, G418 and FBS. At >80% confluency, aspirate the media from the flask and rinse with 10 mL Calcium/Magnesium-free PBS. […] To dislodge the cell, gently bang the side of the flask with your hand. Triturate the cells completely and then transfer the cells to 25 mL complete media. Centrifuge at 1,500 rpm for 6 min followed by resuspension in complete growth media and determine cell concentration.
Compound Buffer (per microplate): 20 mL Probenecid/Assay Buffer; 0.3 mM ouabain (10 mM ouabain in water can be stored in amber bottle/aluminum foil at room temperature); Test compound
Stimulant Buffer (prepared at 5× final concentration in 1× FluxOR™ Chloride-Free Buffer): 7.5 mM Thallium sulfate and […] (to give a final assay concentration of 3 mM Thallium/0.3 mM Potassium). Store at 4° C. when not in use. If kept sterile, this solution is good for months.
The ROMK channel functional thallium flux assay is performed in 384 wells, using the FLIPR-Tetra instrument. HEK-hKir1.1 cells are seeded in Poly-D-Lysine microplates and kept in a 37° C.-10% CO2 incubator overnight. On the day of the experiment, the growth media is replaced with the FluxOR™ reagent loading buffer and incubated, protected from light, at ambient temperature (23-25° C.) for 90 min. The loading buffer is replaced with assay buffer±test compound followed by 30 min incubation at ambient temperature, where the Thallium/Potassium stimulant is added to the microplate.
1. Seed HEK-hKir1.1 cells (50 μl at 20,000 cells/well) in 384-well PDL coated Microplates
2. Allow cells to adhere overnight in humidified 37° C./10% CO2 incubator
3. Completely remove cell growth media from microplate and replace with 25 μl loading buffer
4. Incubate Microplate at room temperature, protected form light, for 90 min
5. Remove loading buffer and replace with 25 μl 1× Assay Buffer±test compound.
6. Incubate microplate at room temperature, protected from light, for 30 min
7. […] Excitation=400 nm, Emission=460 & 580 nm. Collect data for ˜10 min.
The fluorescence intensity of wells containing 3 μM of a standard control ROMK inhibitor of the present invention is used to define the ROMK-sensitive component of thallium flux. Fluorescence in the presence of test compounds is normalized to control values to provide % fluorescence change.

The target of the next test is Kir1.1 (ROMK1) (Homo sapiens (Human), UniProt P48048). As to the kind of experiment: Electrophysiology Assay (whole cell voltage clamp, IonWorks Quattro). The class given is cell-based. The following applies: block during voltage step to 0 mV. How it is done: Chinese hamster ovary cells stably expressing Kir1.1 channels were maintained in T-75 flasks in cell culture media in a humidified 10% CO2 incubator at 37° C. Prior to an experiment, Kir1.1 expression was induced by overnight incubation with 1 mM sodium butyrate. […] After centrifugation, the cell pellet was resuspended in approximately 4.0 mL of bath solution and placed in the IonWorks instrument. The intracellular solution consisted of (in mM): 80 K gluconate, 40 KCl, 20 KF, 3.2 MgCl2, 3 EGTA, 5 Hepes, pH 7.4. Electrical access to the cytoplasm was achieved by perforation in 0.13 mg/mL amphotericin B for 4 min. […] Voltage protocols and current recordings were performed using the IonWorks HT software/hardware system. Currents were sampled at 1 kHz. No correction for liquid junction potentials was used. The test pulse, consisting of a 100 ms step to 0 mV from a holding potential of −70 mV, followed by a 100 ms voltage ramp from −70 mV to +70 mV, was applied before and after a 6 min compound incubation period. Test compounds were prepared by diluting DMSO stock solutions into the bath solution at 3× the final concentration and placed in the instrument in 96-well polypropylene plates. Current amplitudes were measured using the IonWorks software.
Sequence of Kir1.1 (ROMK1) (P48048 whole entry, species assumed): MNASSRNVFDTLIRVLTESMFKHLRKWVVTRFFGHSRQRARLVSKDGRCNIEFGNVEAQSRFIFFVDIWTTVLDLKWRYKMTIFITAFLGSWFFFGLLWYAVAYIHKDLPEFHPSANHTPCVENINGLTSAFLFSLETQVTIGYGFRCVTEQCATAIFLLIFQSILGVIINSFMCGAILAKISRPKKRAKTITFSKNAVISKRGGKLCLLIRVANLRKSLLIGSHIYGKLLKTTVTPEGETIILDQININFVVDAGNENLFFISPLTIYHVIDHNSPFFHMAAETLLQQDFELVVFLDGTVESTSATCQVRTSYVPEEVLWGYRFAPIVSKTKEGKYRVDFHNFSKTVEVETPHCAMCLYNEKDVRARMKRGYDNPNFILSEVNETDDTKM

The mark [1] stands for this setting: HEK293 cells stably expressing hROMK (hKir1.1), read-out: Thallium Flux IC50.
Where [2] appears, read: Chinese hamster ovary cells stably expressing Kir1.1, read-out: Electrophysiology IC50.

Counter-ions that a name gives are not always drawn. Like-named read-outs stand apart in the source and are kept apart here.

Sequence of hROMK (hKir1.1) (P48048 whole entry): as the sequence (P48048 whole entry, species assumed) above

Usually IC50 stands for the concentration needed to halve the response being measured. `COc1cc([C@H]2CN3CCN(CC(O)c4ccc5c(c4C)COC5=O)C[C@H]3CO2)ccc1C#N` (stereo partly drawn) [Example 4, (3S,9aS)-3-(4-cyano-3-methoxyphenyl)-8-[2-hydroxy-2-(4-methyl-1-oxo-1,3-dihydro-2-benzofuran-5-yl)ethyl]octahydropyrazino[2,1-c][1,4]oxazin-5-ium chloride]: the IC50 stood at 430 nM at hROMK (hKir1.1) (setting [1]) and 80 nM on Kir1.1 (ROMK1) (setting [2]).
As for `Cc1c([C@@H](O)CN2CCN3C[C@H](c4ccc(C#N)c(F)c4)OC[C@H]3C2)ccc2c1COC2=O` [Example 28, (3S,9aR)-3-(4-cyano-3-fluorophenyl)-8-[(2R)-2-hydroxy-2-(4-methyl-1-oxo-1,3-dihydro-2-benzofuran-5-yl)ethyl]octahydropyrazino[2,1-c][1,4]oxazin-8-ium chloride], the values for the IC50 on hROMK (hKir1.1) (setting [1]) and at Kir1.1 (ROMK1) (setting [2]) were 190 nM and 90 nM, respectively.
`Cc1c([C@@H](O)CN2CCN3C[C@@H](c4cc(F)c(C#N)c(F)c4)OC[C@@H]3C2)ccc2c1COC2=O` [Example 52, (3R,9aS)-3-(4-cyano-3,5-difluorophenyl)-8-[(2R)-2-hydroxy-2-(4-methyl-1-oxo-1,3-dihydro-2-benzofuran-5-yl)ethyl]octahydropyrazino[2,1-c][1,4]oxazin-8-ium chloride]: the IC50 is 410 nM on hROMK (hKir1.1) (setting [1]) and 100 nM at Kir1.1 (ROMK1) (setting [2]).
In the case of `COc1cc(CCN2CCN3C[C@@H](c4ccc5c(c4C)COC5=O)OC[C@@H]3C2)cc(F)c1C#N` [Example 99], the figures for the IC50 at hROMK (hKir1.1) (setting [1]) and at Kir1.1 (ROMK1) (setting [2]) were 260 nM and 210 nM, respectively.
For `Cc1c([C@@H]2CN3CCN(CC(O)c4cccc(-n5cnnn5)c4)C[C@@H]3CO2)ccc(F)c1C#N` (single isomer, unassigned) [Example 22], in that order: 310 nM and 440 nM.
In the case of `Cc1c([C@H]2CN3CCN(C[C@H](O)c4ccc5c(c4)COC5=O)C[C@@H]3CN2)ccc(F)c1C#N` [Example 108], the IC50 on hROMK (hKir1.1) (setting [1]) and on Kir1.1 (ROMK1) (setting [2]) was 100 nM in each case.
Regarding `Cc1c([C@H]2CN3CCN(CC(C)c4ccc5c(c4)COC5=O)C[C@H]3CO2)ccc2c1COC2=O` (some centres unmarked) [Example 66], the IC50 worked out at 170 nM on hROMK (hKir1.1) (setting [1]) and 140 nM at Kir1.1 (ROMK1) (setting [2]).
For `COc1c(CCN2CCN3C[C@@H](c4ccc5c(c4C)COC5=O)OC[C@@H]3C2)ccc(C#N)c1F` [Example 95], in that order: 120 nM and 110 nM.
In the case of `Cc1c([C@H](O)CN2CCN3C[C@@H](c4ccc5c(c4C)COC5=O)OC[C@@H]3C2)ccc2c1COC2=O` [Example 2, 5-((S)-1-hydroxy-2-((3R,9aS)-3-(4-methyl-1-oxo-1,3-dihydroisobenzofuran-5-yl)hexahydropyrazino[2,1-c][1,4]oxazin-8(1H)-yl)ethyl)-4-methylisobenzofuran-1(3H)-one], the IC50 at hROMK (hKir1.1) (setting [1]) came to 230 nM; on Kir1.1 (ROMK1) (setting [2]) it was 80 nM.
As for `Cc1cc2c(cc1C(O)CN1CCN3C[C@@H](c4ccc(F)c(C#N)c4C)OC[C@@H]3C1)COC2=O` (single isomer, unassigned) [Example 25, trifluoroacetate], the IC50 against hROMK (hKir1.1) (Thallium Flux IC50, HEK293 cells stably expressing hROMK (hKir1.1)) worked out at 340 nM; on Kir1.1 (ROMK1) (Electrophysiology IC50, Chinese hamster ovary cells stably expressing Kir1.1) it was 190 nM.
As to `Cc1c(C(C)CN2CCN3C[C@@H](c4ccc5c(c4C)COC5=O)OC[C@@H]3C2)ccc2c1COC2=O` (some centres unmarked) [Example 90], the IC50 on hROMK (hKir1.1) (setting [1]) was 110 nM; on Kir1.1 (ROMK1) (setting [2]), 230 nM.
As to `COc1cc(C(O)CN2CCN3C[C@@H](c4ccc5c(c4C)COC5=O)OC[C@@H]3C2)ccc1C#N` (single isomer, unassigned) [Example 47], the IC50 on hROMK (hKir1.1) (setting [1]) amounted to 250 nM; at Kir1.1 (ROMK1) (setting [2]) it was 190 nM.
`Cc1c(CCN2CCN3C[C@H](c4ccc5c(c4)COC5=O)OC[C@@H]3C2)ccc2c1COC2=O` [Example 70]: the IC50 is 120 nM at hROMK (hKir1.1) (setting [1]) and 30 nM on Kir1.1 (ROMK1) (setting [2]).
On to `Cc1c([C@@H]2CN3CCN(C[C@H](O)c4ccc5c(c4C)COC5=O)C[C@H]3CO2)ccc2c1COC2=O` [Example 3, 5-((R)-1-hydroxy-2-((3R,9aS)-3-(4-methyl-1-oxo-1,3-dihydroisobenzofuran-5-yl)hexahydropyrazino[2,1-c][1,4]oxazin-8(1H)-yl)ethyl)-4-methylisobenzofuran-1(3H)-one], for which the IC50 on hROMK (hKir1.1) (setting [1]) worked out at 120 nM; at Kir1.1 (ROMK1) (setting [2]) it was 50 nM.
As for `Cc1c(CCN2CCN3C[C@@H](c4ccc(F)c(C#N)c4)OC[C@@H]3C2)ccc2c1COC2=O` [Example 72], the figures for the IC50 at hROMK (hKir1.1) (setting [1]) and on Kir1.1 (ROMK1) (setting [2]) were 150 nM and 160 nM, respectively.
For `COc1cc(C(O)CN2CCN3C[C@@H](c4ccc5c(c4C)COC5=O)OC[C@@H]3C2)cc(F)c1C#N` (single isomer, unassigned) [Example 54], the IC50 on hROMK (hKir1.1) (setting [1]) stood at 340 nM; at Kir1.1 (ROMK1) (setting [2]) it was 170 nM.
Take `Cc1c([C@@H]2CN3CCN(CCc4ccc(-n5cnnn5)nc4)C[C@H]3CO2)ccc(F)c1C#N` [Example 92]: the IC50 amounted to 270 nM at hROMK (hKir1.1) (setting [1]) and 80 nM on Kir1.1 (ROMK1) (setting [2]).
`COc1cc(C(O)CN2CCN3C[C@H](c4ccc5c(c4C)COC5=O)OC[C@H]3C2)c(F)cc1C#N` (stereo partly drawn) [Example 36, (3S,9aR)-8-[2-(4-cyano-2-fluoro-5-methoxyphenyl)-2-hydroxyethyl]-3-(4-methyl-1-oxo-1,3-dihydro-2-benzofuran-5-yl)octahydropyrazino[2,1-c][1,4]oxazin-5-ium chloride]: the IC50 turned out to be 390 nM at hROMK (hKir1.1) (setting [1]) and 120 nM at Kir1.1 (ROMK1) (setting [2]).
Take `Cc1c([C@@H]2CN3CCN(CC(O)c4ccc5c(c4)C[C@H](C)OC5=O)C[C@H]3CO2)ccc2c1COC2=O` (single isomer, unassigned) [Example 45]: the IC50 at hROMK (hKir1.1) (setting [1]) is 470 nM; on Kir1.1 (ROMK1) (setting [2]), 120 nM.
On to `Cc1c(CCN2CCN3C[C@@H](c4ccc5c(c4)COC5=O)OC[C@@H]3C2)ccc2c1COC2=O` [Example 69], for which the IC50 at hROMK (hKir1.1) (setting [1]) worked out at 60 nM; on Kir1.1 (ROMK1) (setting [2]), 20 nM.
`COc1cc(C(O)CN2CCN3C[C@@H](c4ccc5c(c4C)COC5=O)OC[C@@H]3C2)cc(F)c1C#N` (stereo partly drawn) [Example 48, (3R,9aS)-8-[2-(4-cyano-3-fluoro-5-methoxyphenyl)-2-hydroxyethyl]-3-(4-methyl-1-oxo-1,3-dihydro-2-benzofuran-5-yl)octahydropyrazino[2,1-c][1,4]oxazin-5-ium chloride]: the IC50 on hROMK (hKir1.1) (setting [1]) came to 220 nM; on Kir1.1 (ROMK1) (setting [2]), 210 nM.
Consider `Cc1c([C@@H]2CN3CCN(CCc4ccc5c(c4)C[C@@H](C)OC5=O)C[C@H]3CO2)ccc2c1COC2=O` [Example 87], for which the IC50 at hROMK (hKir1.1) (setting [1]) is 110 nM; at Kir1.1 (ROMK1) (setting [2]), 50 nM.
For `Cc1cc2c(cc1C(O)CN1CCN3C[C@@H](c4ccc5c(c4C)COC5=O)OC[C@@H]3C1)COC2=O` (single isomer, unassigned) [Example 42], in that order: 220 nM and 80 nM.
Consider `Cc1c([C@@H](O)CN2CCN3C[C@H](c4ccc5c(c4C)COC5=O)SC[C@@H]3C2)ccc2c1COC2=O` [Example 55, 5-{(3S,9aS)-8-[(2R)-2-hydroxy-2-(4-methyl-1-oxo-1,3-dihydro-2-bcnzofuran-5-yl)ethyl]octahydropyrazino[2,1-c][1,4]thiazin-3-yl}-4-methyl-2-benzofuran-1(3H)-one], for which the IC50 on hROMK (hKir1.1) (setting [1]) came to 330 nM; at Kir1.1 (ROMK1) (setting [2]) it was 90 nM.
As for `Cc1c([C@@H]2CN3CCN(CCc4ccc5c(c4C)COC5=O)C[C@H]3CO2)ccc(F)c1C#N` [Example 80], the IC50 at hROMK (hKir1.1) (setting [1]) was determined as 60 nM; at Kir1.1 (ROMK1) (setting [2]) it was 50 nM.

Source of the values: patent publication US9604998B2, “Inhibitors of the renal outer medullary potassium channel” (MERCK SHARP & DOHME CORP., priority 2013, dated 2017).
